Source: patent EP0607373B1, “TRISUBSTITUTED PHENYL DERIVATIVES AS SELECTIVE PHOSPHODIESTERASE IV INHIBITORS” (CELLTECH THERAPEUTICS LIMITED, priority 1992, dated 1993)

What was measured:
PDE IV, HL60 cells = test: Isolated enzyme phosphodiesterase assay, PDE IV; assay type: biochemical; settings: 0.1µM [3H]-cAMP, 30°C, pH 7.5, read-out: approximate Ki values (Ki PDE IV HL60 at (1µM))
Method: The potency and selectivity of the compounds of the invention was determined using a battery of distinct PDE isoenzymes as follows: • i. PDE I, rabbit heart • ii. PDE II, rabbit heart • iii. PDE III, rabbit heart • iv. PDE IV, HL60 cells.
The enzymes were purified to kinetic homogeneity using standard chromatographic techniques.
Phosphodiesterase activity was assayed as follows. The reaction was conducted in 150µl of standard mixture containing (final concentrations): 50mM TES-NaOH buffer (pH 7.5), 10mM MgCl2, 0.1µM [^3H]-cAMP and vehicle or various concentrations of the test compounds. The reaction was initiated by addition of enzyme and conducted at 30°C for between 5 to 30 mins. The reaction was terminated by addition of 50µl 2% trifluoroacetic acid containing [^14C]-5'AMP for determining recovery of the product. An aliquot of the sample was then applied to a column of neutral alumina and the [^3H]-cAMP eluted with 10ml 0.1 TES-NaOH buffer (pH8). The [^3H]-5'-AMP product was eluted with 2ml 2M NaOH into a scintillation vial containing 10ml of scintillation cocktail. Recovery of [^3H]-5'AMP was determined using the [^14C]-5'AMP and all assays were conducted in the linear range of the reaction.

[1] = test system: Right atrial and papillary muscles; settings: reference inhibitors, general statement on these preparations; cited from earlier work

COc1ccc(NC(=O)c2ccccc2[N+](=O)[O-])cc1OC1CCCC1 [Example 3, 3-Cyclopentyloxy-4-methyloxy-N-(2-Nitrobenzoyl)aniline]
Ki (PDE IV, HL60 cells): ~0.179 µM

Cc1[nH]c(=O)c(C#N)cc1-c1ccncc1 [milrinone]
direct effects on isolated cardiac muscle (chronotropic, inotropic) [1]: positive chronotropic and inotropic effects

COc1ccc(C2CNC(=O)C2)cc1OC1CCCC1 (stereo not shown) [rolipram]
direct effects on isolated cardiac muscle (chronotropic, inotropic) [1]: do not have any direct effects

COc1ccc(NC(=O)c2ccccc2)cc1OC1CCCC1 [Example 1, N-Benzoyl-3-cyclopentyloxy-4-methyloxyaniline]
Ki (PDE IV, HL60 cells): ~0.391 µM
